From ChEMBL document CHEMBL4152218, “Novel hydrazide-hydrazone and amide substituted coumarin derivatives: Synthesis, cytotoxicity screening, microarray, radiolabeling and in vivo pharmacokinetic studies” (Eur J Med Chem, 2018)
The source made the active and inactive calls. The rule behind the calls is not given here.

What was measured:
[1] = system: CCRF-CEM; test: Antiproliferative activity against human CCRF-CEM cells after 48 hrs by resazurin dye-based fluorescence assay; type: functional, cell-based
[2] = system: hTERT-BJ; test: Cytotoxicity against hTERT-BJ cells after 48 hrs by resazurin dye-based fluorescence assay; type: cell-based; conditions: Homo sapiens
[3] = Selectivity index, ratio of IC50 for hTERT-BJ cells to IC50 for human PANC1 cells; type: toxicity; conditions: hTERT-BJ cells versus PANC1 cells, read-out: Ratio IC50
[4] = Selectivity index, ratio of IC50 for hTERT-RPE1 cells to IC50 for human CCRF-CEM cells; type: toxicity; conditions: hTERT-RPE1 cells versus CCRF-CEM cells, read-out: Ratio IC50
[5] = system: HepG2; test: Induction of apoptosis in human HepG2 cells assessed as increase in caspase-3/7 activity after 24 hrs by Caspase-Glo 3/7 luminescence assay; type: functional, cell-based
[6] = system: TERT-RPE1; test: Cytotoxicity against hTERT-RPE1 cells after 48 hrs by resazurin dye-based fluorescence assay; type: cell-based; conditions: Homo sapiens, RPE-1, 48 h
[7] = system: HepG2; test: Effect on CYP3A4 gene expression in human HepG2 cells at IC50 after 48 hrs by microarray analysis; type: ADME, cell-based; conditions: hepg2, 48 h
[8] = system: HepG2; test: Effect on DIDO1 gene expression in human HepG2 cells at IC50 after 48 hrs by microarray analysis; type: functional, cell-based
[9] = system: HepG2; test: Effect on GADD45A gene expression in human HepG2 cells at IC50 after 48 hrs by microarray analysis; type: functional, cell-based
[10] = system: HepG2; test: Effect on GDF15 gene expression in human HepG2 cells at IC50 after 48 hrs by microarray analysis; type: functional, cell-based
[11] = system: HepG2; test: Effect on GST A1 gene expression in human HepG2 cells at IC50 after 48 hrs by microarray analysis; type: functional, cell-based
[12] = system: HepG2; test: Effect on GST M1 gene expression in human HepG2 cells at IC50 after 48 hrs by microarray analysis; type: functional, cell-based
[13] = system: HepG2; test: Effect on OR5P2 gene expression in human HepG2 cells at IC50 after 48 hrs by microarray analysis; type: functional, cell-based
[14] = system: HepG2; test: Effect on PCDH21 gene expression in human HepG2 cells at IC50 after 48 hrs by microarray analysis; type: functional, cell-based
[15] = system: HepG2; test: Effect on PYCR1 gene expression in human HepG2 cells at IC50 after 48 hrs by microarray analysis; type: functional, cell-based
[16] = system: HepG2; test: Effect on SYT2 gene expression in human HepG2 cells at IC50 after 48 hrs by microarray analysis; type: functional, cell-based
[17] = system: HepG2; test: Effect on TMEM132D gene expression in human HepG2 cells at IC50 after 48 hrs by microarray analysis; type: functional, cell-based
[18] = system: HepG2; test: Effect on TOP2A gene expression in human HepG2 cells at IC50 after 48 hrs by microarray analysis; type: functional, cell-based
[19] = system: HepG2; test: Effect on TOP3A gene expression in human HepG2 cells at IC50 after 48 hrs by microarray analysis; type: functional, cell-based
[20] = system: PANC-1; test: Effect on ABCB1 gene expression in human PANC1 cells at IC50 after 48 hrs by microarray analysis; type: functional, cell-based
[21] = system: PANC-1; test: Effect on ABCB4 gene expression in human PANC1 cells at IC50 after 48 hrs by microarray analysis; type: functional, cell-based
[22] = system: PANC-1; test: Effect on CASP1 gene expression in human PANC1 cells at IC50 after 48 hrs by microarray analysis; type: functional, cell-based
[23] = system: PANC-1; test: Effect on CASP7 gene expression in human PANC1 cells at IC50 after 48 hrs by microarray analysis; type: functional, cell-based
[24] = system: PANC-1; test: Effect on CYP1A1 gene expression in human PANC1 cells at IC50 after 48 hrs by microarray analysis; type: ADME, cell-based; conditions: panc-1, 48 h
[25] = system: PANC-1; test: Effect on GSTM1 gene expression in human PANC1 cells at IC50 after 48 hrs by microarray analysis; type: functional, cell-based
[26] = system: PANC-1; test: Effect on HEATR3 gene expression in human PANC1 cells at IC50 after 48 hrs by microarray analysis; type: functional, cell-based
[27] = system: PANC-1; test: Effect on HSPE1 gene expression in human PANC1 cells at IC50 after 48 hrs by microarray analysis; type: functional, cell-based
[28] = system: PANC-1; test: Effect on JMJD2B gene expression in human PANC1 cells at IC50 after 48 hrs by microarray analysis; type: functional, cell-based
[29] = system: PANC-1; test: Effect on LOC407835 gene expression in human PANC1 cells at IC50 after 48 hrs by microarray analysis; type: functional, cell-based
[30] = system: PANC-1; test: Effect on NSBP1 gene expression in human PANC1 cells at IC50 after 48 hrs by microarray analysis; type: functional, cell-based
[31] = system: PANC-1; test: Effect on PAH gene expression in human PANC1 cells at IC50 after 48 hrs by microarray analysis; type: functional, cell-based
[32] = system: PANC-1; test: Effect on PCNA gene expression in human PANC1 cells at IC50 after 48 hrs by microarray analysis; type: functional, cell-based
[33] = system: PANC-1; test: Effect on THOC2 gene expression in human PANC1 cells at IC50 after 48 hrs by microarray analysis; type: functional, cell-based
[34] = system: PANC-1; test: Effect on TOP2A gene expression in human PANC1 cells at IC50 after 48 hrs by microarray analysis; type: functional, cell-based
[35] = system: PANC-1; test: Effect on TOP3A gene expression in human PANC1 cells at IC50 after 48 hrs by microarray analysis; type: functional, cell-based
[36] = system: PANC-1; test: Effect on UPP1 gene expression in human PANC1 cells at IC50 after 48 hrs by microarray analysis; type: functional, cell-based
[37] = system: PANC-1; test: Effect on YY1 gene expression in human PANC1 cells at IC50 after 48 hrs by microarray analysis; type: functional, cell-based
[38] = system: PANC-1; test: Effect on ZNF148 gene expression in human PANC1 cells at IC50 after 48 hrs by microarray analysis; type: functional, cell-based
[39] = system: HepG2; test: Effect on CASP7 gene expression in human HepG2 cells at IC50 after 48 hrs by microarray analysis relative to control; type: functional
[40] = system: HepG2; test: Effect on GDF15 gene expression in human HepG2 cells at IC50 after 48 hrs by microarray analysis relative to control; type: functional
[41] = system: HepG2; test: Effect on TOP2A gene expression in human HepG2 cells at IC50 after 48 hrs by microarray analysis relative to control; type: functional
[42] = system: HepG2; test: Effect on GADD45A gene expression in human HepG2 cells at IC50 by SYBR green-dye based qRT-PCR analysis relative to beta-actin; type: functional
[43] = Inhibition of GST (unknown origin) using CDNB as substrate by spectrophotometric analysis; conditions: human
[44] = system: hTERT-BJ; test: Cytotoxicity against hTERT-BJ cells at 6.25 uM after 48 hrs by resazurin dye-based fluorescence assay relative to control; type: cell-based; conditions: human
[45] = system: hTERT-BJ; test: Cytotoxicity against hTERT-BJ cells at 25 uM after 48 hrs by resazurin dye-based fluorescence assay relative to control; type: cell-based; conditions: human
[46] = system: hTERT-BJ; test: Cytotoxicity against hTERT-BJ cells at 50 uM after 48 hrs by resazurin dye-based fluorescence assay relative to control; type: cell-based; conditions: human
[47] = system: TERT-RPE1; test: Cytotoxicity against hTERT-RPE1 cells at 6.25 uM after 48 hrs by resazurin dye-based fluorescence assay relative to control; type: cell-based; conditions: human, tert-rpe1, 48 h
[48] = system: TERT-RPE1; test: Cytotoxicity against hTERT-RPE1 cells at 12.50 uM after 48 hrs by resazurin dye-based fluorescence assay relative to control; type: cell-based; conditions: human, tert-rpe1, 48 h, 12.5 µM

## O=C(N/N=C/c1cc2ccccc2nc1Cl)c1cc2cc(Br)ccc2oc1=O
[1]
  IC50: 7.45 µM
[2]
  IC50: > 50 µM
[3]
  selectivity ratio: > 9.18
[4]
  selectivity ratio: > 6.71
[5]
  Activity: Dose-dependent effect
[6]
  IC50: > 50 µM
[7]
  Activity: Active
[8]
  Activity: Active
[9]
  Activity: Active
[10]
  Activity: Active
[11]
  Activity: Active
[12]
  Activity: Active
[13]
  Activity: Active
[14]
  Activity: Active
[15]
  Activity: Active
[16]
  Activity: Active
[17]
  Activity: Active
[18]
  Activity: Active
[19]
  Activity: Active
[20]
  Activity: Active
[21]
  Activity: Active
[22]
  Activity: Active
[23]
  Activity: Active
[24]
  Activity: Active
[25]
  Activity: Active
[26]
  Activity: Active
[27]
  Activity: Active
[28]
  Activity: Active
[29]
  Activity: Active
[30]
  Activity: Active
[31]
  Activity: Active
[32]
  Activity: Active
[33]
  Activity: Active
[34]
  Activity: Active
[35]
  Activity: Active
[36]
  Activity: Active
[37]
  Activity: Active
[38]
  Activity: Active
[39]
  fold change (FC): 3.18
[40]
  fold change (FC): 4.56
[41]
  fold change (FC): -3.57
[42]
  fold change (FC): 3.52
[43]
  inhibition (INH): Dose-dependent effect
[44]
  Activity: 1.98%
[45]
  Activity: 3.47%
[46]
  Activity: 5.18%
[47]
  Activity: 0.94%
[48]
  Activity: 12.73%
